± gives the expanded uncertainty stated by the source.
Assay: cn = amount concentration of the nth substance listed, in mol/dm3
Conditions: 101.3 kPa, Liquid; for viscosity: Falling or rolling sphere viscometry; for mass density: Vibrating tube method; for electrical conductivity: Alternating current cell with electrodes

SMILES: CC(N)C(=O)[O-].[K+] (stereo not drawn) [potassium DL-alaninate] + O
- viscosity (323.15 K, c1 = 1.999): 1.069 ± 0.024 mPa·s
- viscosity (323.15 K, c1 = 2.522): 1.301 ± 0.031 mPa·s
- viscosity (323.15 K, c1 = 3.048): 1.549 ± 0.037 mPa·s
- mass density (323.15 K, c1 = 0.495): 1016.2 ± 1.6 kg/m3
- mass density (323.15 K, c1 = 1.014): 1043.4 ± 1.7 kg/m3
- mass density (323.15 K, c1 = 1.509): 1069.9 ± 1.8 kg/m3
- mass density (323.15 K, c1 = 1.954): 1094.2 ± 1.9 kg/m3
- mass density (323.15 K, c1 = 2.507): 1121.8 ± 2 kg/m3
- mass density (323.15 K, c1 = 2.988): 1145.7 ± 2.2 kg/m3
- mass density (323.15 K, c1 = 3.499): 1170.3 ± 2.4 kg/m3
- electrical conductivity (328.15 K, c1 = 0.526): 5.89 ± 0.12 S/m
- electrical conductivity (328.15 K, c1 = 1.009): 9.68 ± 0.2 S/m
- electrical conductivity (328.15 K, c1 = 1.499): 12.2 ± 0.25 S/m
- electrical conductivity (328.15 K, c1 = 2.018): 13.8 ± 0.28 S/m
- electrical conductivity (328.15 K, c1 = 2.501): 14.6 ± 0.29 S/m
- electrical conductivity (328.15 K, c1 = 3.046): 14.9 ± 0.3 S/m
- electrical conductivity (328.15 K, c1 = 3.497): 14.7 ± 0.29 S/m
- viscosity (328.15 K, c1 = 0.514): 0.596 ± 0.013 mPa·s
- viscosity (328.15 K, c1 = 1.029): 0.703 ± 0.015 mPa·s
- viscosity (328.15 K, c1 = 1.524): 0.854 ± 0.019 mPa·s
- viscosity (328.15 K, c1 = 1.999): 0.985 ± 0.022 mPa·s
- viscosity (328.15 K, c1 = 2.522): 1.201 ± 0.028 mPa·s
- viscosity (328.15 K, c1 = 3.048): 1.413 ± 0.033 mPa·s
- mass density (328.15 K, c1 = 0.495): 1013.9 ± 1.6 kg/m3
- mass density (328.15 K, c1 = 1.014): 1041 ± 1.7 kg/m3
- mass density (328.15 K, c1 = 1.509): 1067.4 ± 1.8 kg/m3
- mass density (328.15 K, c1 = 1.954): 1091.5 ± 1.9 kg/m3
- mass density (328.15 K, c1 = 2.507): 1119 ± 2 kg/m3
- mass density (328.15 K, c1 = 2.988): 1143 ± 2.2 kg/m3
- mass density (328.15 K, c1 = 3.499): 1167.5 ± 2.3 kg/m3
- electrical conductivity (333.15 K, c1 = 0.526): 6.27 ± 0.13 S/m
- electrical conductivity (333.15 K, c1 = 1.009): 10.3 ± 0.22 S/m
- electrical conductivity (333.15 K, c1 = 1.499): 13 ± 0.27 S/m
- electrical conductivity (333.15 K, c1 = 2.018): 14.6 ± 0.3 S/m
- electrical conductivity (333.15 K, c1 = 2.501): 15.5 ± 0.31 S/m
- electrical conductivity (333.15 K, c1 = 3.046): 15.8 ± 0.32 S/m
- electrical conductivity (333.15 K, c1 = 3.497): 15.7 ± 0.31 S/m
- viscosity (333.15 K, c1 = 0.514): 0.547 ± 0.012 mPa·s
- viscosity (333.15 K, c1 = 1.029): 0.649 ± 0.014 mPa·s
- viscosity (333.15 K, c1 = 1.524): 0.799 ± 0.018 mPa·s
- viscosity (333.15 K, c1 = 1.999): 0.902 ± 0.02 mPa·s
- viscosity (333.15 K, c1 = 2.522): 1.104 ± 0.026 mPa·s
- viscosity (333.15 K, c1 = 3.048): 1.286 ± 0.03 mPa·s
- mass density (333.15 K, c1 = 0.495): 1011.5 ± 1.6 kg/m3
- mass density (333.15 K, c1 = 1.014): 1038.5 ± 1.7 kg/m3
- mass density (333.15 K, c1 = 1.509): 1064.9 ± 1.8 kg/m3
- mass density (333.15 K, c1 = 1.954): 1088.8 ± 1.9 kg/m3
- mass density (333.15 K, c1 = 2.507): 1116.3 ± 2 kg/m3
- mass density (333.15 K, c1 = 2.988): 1140.2 ± 2.2 kg/m3
- mass density (333.15 K, c1 = 3.499): 1164.6 ± 2.3 kg/m3
- electrical conductivity (338.15 K, c1 = 0.526): 6.64 ± 0.14 S/m
- electrical conductivity (338.15 K, c1 = 1.009): 10.8 ± 0.23 S/m
- electrical conductivity (338.15 K, c1 = 1.499): 13.8 ± 0.28 S/m
- electrical conductivity (338.15 K, c1 = 2.018): 15.5 ± 0.31 S/m
- electrical conductivity (338.15 K, c1 = 2.501): 16.4 ± 0.33 S/m
- electrical conductivity (338.15 K, c1 = 3.046): 16.8 ± 0.34 S/m
- electrical conductivity (338.15 K, c1 = 3.497): 16.7 ± 0.33 S/m
- viscosity (338.15 K, c1 = 0.514): 0.507 ± 0.011 mPa·s
- viscosity (338.15 K, c1 = 1.029): 0.602 ± 0.013 mPa·s
- viscosity (338.15 K, c1 = 1.524): 0.742 ± 0.016 mPa·s
- viscosity (338.15 K, c1 = 1.999): 0.83 ± 0.019 mPa·s
- viscosity (338.15 K, c1 = 2.522): 1.015 ± 0.024 mPa·s
- viscosity (338.15 K, c1 = 3.048): 1.176 ± 0.027 mPa·s
- mass density (338.15 K, c1 = 0.495): 1008.9 ± 1.6 kg/m3
- mass density (338.15 K, c1 = 1.014): 1035.9 ± 1.7 kg/m3
- mass density (338.15 K, c1 = 1.509): 1062.1 ± 1.8 kg/m3
- mass density (338.15 K, c1 = 1.954): 1086.1 ± 1.9 kg/m3
- mass density (338.15 K, c1 = 2.507): 1113.5 ± 2 kg/m3
- mass density (338.15 K, c1 = 2.988): 1137.3 ± 2.2 kg/m3
- mass density (338.15 K, c1 = 3.499): 1161.6 ± 2.3 kg/m3
- electrical conductivity (343.15 K, c1 = 0.526): 7.02 ± 0.15 S/m
- electrical conductivity (343.15 K, c1 = 1.009): 11.4 ± 0.24 S/m
- electrical conductivity (343.15 K, c1 = 1.499): 14.5 ± 0.3 S/m
- electrical conductivity (343.15 K, c1 = 2.018): 16.3 ± 0.33 S/m
- electrical conductivity (343.15 K, c1 = 2.501): 17.4 ± 0.35 S/m
- electrical conductivity (343.15 K, c1 = 3.046): 17.8 ± 0.36 S/m
- electrical conductivity (343.15 K, c1 = 3.497): 17.7 ± 0.35 S/m
- viscosity (343.15 K, c1 = 0.514): 0.475 ± 0.01 mPa·s
- viscosity (343.15 K, c1 = 1.029): 0.563 ± 0.012 mPa·s
- viscosity (343.15 K, c1 = 1.524): 0.693 ± 0.015 mPa·s
- viscosity (343.15 K, c1 = 1.999): 0.77 ± 0.017 mPa·s
- viscosity (343.15 K, c1 = 2.522): 0.94 ± 0.022 mPa·s
- viscosity (343.15 K, c1 = 3.048): 1.087 ± 0.025 mPa·s
- mass density (343.15 K, c1 = 0.495): 1006.3 ± 1.6 kg/m3
- mass density (343.15 K, c1 = 1.014): 1033.1 ± 1.7 kg/m3
- mass density (343.15 K, c1 = 1.509): 1059.4 ± 1.8 kg/m3
- mass density (343.15 K, c1 = 1.954): 1083.4 ± 1.9 kg/m3
- mass density (343.15 K, c1 = 2.507): 1110.5 ± 2 kg/m3
- mass density (343.15 K, c1 = 2.988): 1134.4 ± 2.2 kg/m3
- mass density (343.15 K, c1 = 3.499): 1158.6 ± 2.3 kg/m3

From the NIST ThermoML archive (doi:10.1016/j.jct.2014.05.014)
